According to US6002002A, “Anti-ischaemic hydroxylamine derivatives and pharmaceutical compositions” (Biorex Research & Development Co., priority 1995, dated 1999):

What was measured:
platelet aggregation = experiment: Inhibition of ADP-induced platelet aggregation in platelet-rich preparates from human venal blood; format: cell-based; settings: concentration inhibiting the aggregation in 50%, read-out: antiaggregation EC50
Procedure: To the samples sodium citrate was added and 10 minutes later centrifuged with 1000 rpm.

anaesthetized rats = experiment: Reperfusion-induced arrhytmia (ventricular tachycardia and fibrillation) after LAD coronary occlusion in anaesthetized rats; survival; format: in vivo; settings: rat, 1 mg/kg i.v. 5 minutes before pressing LAD coronary artery; 5 min ischaemia, 10 min reperfusion
Procedure: The reperfusion-induced arrhytmia (ventricular tachycardia, KT and ventricuiar fibrillation, KF) was tested on anaesthetized rats. Myocardial ischaemia was induced by pressing the coronary artery for 5 minutes followed by 10 minutes reperfusion of the heart. The ECG was permanently monitored and the change of mean period of KT and KF by the effect of active materials was measured in the first 3 minutes of reperfusion. Survival was also monitored. The compounds were administered i.v. 5 minutes before pressing the LAD coronary artery in a dosis of 1 mg/kg.
Experimental results obtained by administering some representative compounds of the invention are listed below: […]

[1] = tested on: isolated rabbit thoracal aorta; experiment: in vitro vasorelaxation on isolated rabbit thoracal aorta; format: cell-based; settings: Oryctolagus cuniculus
Procedure: The vasorelaxant effect of the compounds of the invention was tested in vitro on isolated rabbit thoracal aorta according to Am. J. Physiol. 257:, 1327-1333 (1989).

Row | SMILES | EC50 (platelet aggregation) [µM] | Survival % (anaesthetized rats) [%] | EC50 [1] [µM]
1 | CCOC(=O)[N-]c1c[n+](N2CCOCC2)no1 [Molsidomin, reference compound] | 1500 |  | 
2 | CC(C)(C)N(CC(O)CONC(=O)NC1CCCCC1)C(=O)NC1CCCCC1 (stereo not shown) [Example 15, N-cyclohexyl-N'-{2-hydroxy-3-[N-(cyclohexyl-carbamoyl)-N-tert-butylamino]-propoxy}-urea] |  | 60 | 
3 | CCCCCCCNC(=O)NOCC(O)CN1CCCCC1 (stereo not shown) [Example 23, N-heptyl-N'-(2-hydroxy-3-piperidino-propoxy)-urea] | 430 | 80 | 190
4 | CCCNC(=O)NOCC(O)CN1CCCCC1 (stereo not shown) [Example 4, N-n-propyl-N'-(2-hydroxy-3-piperidino-propoxy)-urea] |  | 67 | 
5 | CC(C)COCC(CN(Cc1ccccc1)c1ccccc1)N1CCCC1 (stereo not shown) [Bepridyl, reference compound] |  |  | 83
6 | O=C(NOCC(O)CN1CCCCC1)Nc1cccc([N+](=O)[O-])c1 (stereo not shown) [Example 19, N-(3-nitrophenyl)-N'-(2-hydroxy-3-piperidino-propoxy)-urea] | 340 |  | 38
7 | O=C(NOCC(O)CN1CCCCC1)NC1CCCCC1 (stereo not shown) [Example 5, N-cyclohexyl-N'-(2-hydroxy-3-piperidino-propoxy)-urea] |  | 67 | 
8 | CCCCCCNC(=O)NOCCCN1CCCCC1 [Example 16, N-n-hexyl-N'-(3-piperidino-propoxy)-urea] | 710 | 83 | 450
9 | CCCCCCNC(=O)NOCC(O)CN1CCCCC1 (stereo not shown) [Example 6, N-n-hexyl-N'-(2-hydroxy-3-piperidino-propoxy)-urea] | 1500 | 100 | 190
10 | O=C(NOCC(O)CN1CCCCC1)Nc1cccc(Cl)c1 (stereo not shown) [Example 7, N-(3-chlorophenyl)-N'-(2-hydroxy-3-piperidino-propoxy)-urea] | 900 | 86 | 100
